In patent publication US20250296960A1, “PEPTIDE COMPOSITIONS AND METHODS OF USE THEREOF” (priority 2022, published 2025):
Square brackets hold non-standard residues; d marks the D form. Peptide text beside a SMILES is read from it. * marks the point of attachment. X1 = O=C(O)CCCCCCCCCCCCCCCCC(=O)N[C@@H](CCC(=O)NCCOCCOCC(=O)NCCOCCOCC(=O)NCCN1C(=O)CC(*)C1=O)C(=O)O; Aib = CC(C)(N)C(=O)O

Assays:
human GLP-1R = target: T1, human GLP-1R (Homo sapiens, UniProt P43220); assay: cAMP assay (HitHunter cAMP) in GLP-1R-expressing CHO-K1 cells (GLP-1R+ cells); type: cell-based; conditions: for Activity relative to STD peptide (%), GLP-1R: Table 18; for Activity relative to GLP-1 (%), GLP-1R: Table 19; for Relative % to native ligand, GLP-1R: Table 24, ratio of EC50 of native ligand over peptide; for Ratio vs. GLP-1R, GLP-1R: Table 25; for Relative % to non-lipidated peptide, GLP-1R: Table 26
T1 construct: host or cells: CHO-K1
Procedure: (§1) The cells were seeded in a 96-well plate at 7×10^3 cells/well using cell plate reagent and incubated the cells overnight at 37° C. and 5% CO2. To perform the cAMP detection assay, cell plating reagent were replaced with the cAMP Assay buffer. Each of the wells was then treated with the diluted peptide and incubated for 30 minutes under conditions of a temperature of 37° C. in a CO2 incubator.
(§2) After the incubation, cAMP Antibody reagent and Working cAMP detection solution to all wells. Incubate the plate for 1 hour at Room temperature in the dark. Then, cAMP Solution A was added and incubated for 3 hours at room temperature in the dark. Subsequently, the luminescence was measured using the microplate reader device.

human GCGR = target: T2, human GCGR (Homo sapiens, UniProt P47871); assay: cAMP assay (HitHunter cAMP) in GCGR-expressing CHO-K1 cells (GCGR+ cells); type: cell-based; conditions: for Activity relative to STD peptide (%), GCGR: Table 18; for Activity relative to GLP-1 (%), GCGR: Table 19; for Relative % to native ligand, GCGR: Table 24, ratio of EC50 of native ligand over peptide; for Ratio vs. GLP-1R, GCGR: Table 25; for Relative % to non-lipidated peptide, GCGR: Table 26
T2 construct: host or cells: CHO-K1
Procedure: as §1, §2

human GIPR = target: T3, human GIPR (Homo sapiens, UniProt P48546); assay: cAMP assay (HitHunter cAMP) in GIPR-expressing CHO-K1 cells (GIPR+ cells); type: cell-based; conditions: for Activity relative to STD peptide (%), GIPR: Table 18; for Activity relative to GLP-1 (%), GIPR: Table 19; for Relative % to native ligand, GIPR: Table 24, ratio of EC50 of native ligand over peptide; for Ratio vs. GLP-1R, GIPR: Table 25; for Relative % to non-lipidated peptide, GIPR: Table 26
T3 construct: host or cells: CHO-K1
T3 sequence (P48546 22-466): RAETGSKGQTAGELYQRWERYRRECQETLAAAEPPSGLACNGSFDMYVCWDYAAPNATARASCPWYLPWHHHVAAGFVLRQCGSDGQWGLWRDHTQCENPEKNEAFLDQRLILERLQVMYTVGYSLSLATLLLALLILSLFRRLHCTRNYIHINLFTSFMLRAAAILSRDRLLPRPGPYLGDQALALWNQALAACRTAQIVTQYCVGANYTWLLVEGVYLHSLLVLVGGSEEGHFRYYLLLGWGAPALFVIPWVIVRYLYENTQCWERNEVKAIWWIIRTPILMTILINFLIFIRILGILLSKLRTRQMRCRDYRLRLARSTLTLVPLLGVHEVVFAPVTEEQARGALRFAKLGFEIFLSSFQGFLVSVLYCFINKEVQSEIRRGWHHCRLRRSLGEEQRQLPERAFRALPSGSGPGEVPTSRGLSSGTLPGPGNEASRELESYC
Procedure: as §1, §2

[1] = Body weight loss in normal C57BL/6 mice, subcutaneous dosing; type: in vivo; conditions: normal mice, after 48 or 72 hours
Procedure: To confirm the therapeutic effect of the peptide in vivo, polypeptides were administered to mice to measure changes in body weight. […] The peptides were delivered at 0.02% polysorbate 80 (PS80) in PBS and dosing volume was 10 mL/kg. Body weight was monitored 6 h, QD.
To confirm the therapeutic effect of the peptide in obesity, diabetes, or NASH, polypeptides were administered to mice to measure changes in food intake, blood glucose and body weight. […] In addition, a NASH animal model was prepared by feeding a high fat, high fructose, high cholesterol diet to normal C57BL/6 mice (approximately 6 weeks old) for approximately 21 weeks, and increasing the body weights of the mice to approximately 50 g on average. Thereafter, polypeptides were administered by subcutaneous injection at dose of 20 nmol/kg once every other day for 2 weeks. Body weight and food intake were measured once every other day given points of time. After 2 weeks of treatment period, mice were sacrificed, then liver weight, hepatic triglyceride, and NASH related biomarkers were measured.
DD01 administered at 40 nmol/kg, s.c. Q2D as positive control was delivered at 0.02% PS80 in PBS and dosing volume was 10 mL/kg. Body weight was monitored QD for 4 days.
The peptides were delivered at 0.02% PS80 in PBS and dosing volume was 10 mL/kg. Food intake, blood glucose, and body weight changes were monitored QD.

[2] = normalised to activity at GLP-1R
[3] = Table 13, EC50 of STD peptide over EC50 of peptide
[4] = Table 14, normalised to activity at GLP-1R

T1 sequence (P43220 24-463): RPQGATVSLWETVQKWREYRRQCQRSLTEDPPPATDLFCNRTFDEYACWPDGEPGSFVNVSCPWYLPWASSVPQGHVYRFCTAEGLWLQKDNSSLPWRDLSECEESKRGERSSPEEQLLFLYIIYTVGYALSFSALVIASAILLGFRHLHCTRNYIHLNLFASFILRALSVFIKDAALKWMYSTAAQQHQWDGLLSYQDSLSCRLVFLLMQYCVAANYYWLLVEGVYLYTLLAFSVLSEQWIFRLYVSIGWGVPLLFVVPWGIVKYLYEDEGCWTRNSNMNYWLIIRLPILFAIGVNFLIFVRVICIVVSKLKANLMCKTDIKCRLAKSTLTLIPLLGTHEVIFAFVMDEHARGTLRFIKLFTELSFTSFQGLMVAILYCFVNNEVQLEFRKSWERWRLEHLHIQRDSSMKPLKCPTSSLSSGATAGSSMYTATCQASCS
T2 sequence (P47871 26-477): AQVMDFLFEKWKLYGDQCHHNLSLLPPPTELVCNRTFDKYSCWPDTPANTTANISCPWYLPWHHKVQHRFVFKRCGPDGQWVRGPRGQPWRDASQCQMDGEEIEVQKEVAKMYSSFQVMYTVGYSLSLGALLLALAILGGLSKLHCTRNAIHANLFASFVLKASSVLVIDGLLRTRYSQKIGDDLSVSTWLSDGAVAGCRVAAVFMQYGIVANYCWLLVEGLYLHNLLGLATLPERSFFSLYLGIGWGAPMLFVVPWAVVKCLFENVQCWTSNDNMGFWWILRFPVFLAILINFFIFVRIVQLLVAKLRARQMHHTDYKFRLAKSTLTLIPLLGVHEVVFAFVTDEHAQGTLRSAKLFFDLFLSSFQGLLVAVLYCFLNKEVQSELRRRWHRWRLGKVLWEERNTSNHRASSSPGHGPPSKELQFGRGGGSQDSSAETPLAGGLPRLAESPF

Row | SMILES | Activity relative to STD peptide (%), GLP-1R (human GLP-1R) [%] | Activity relative to GLP-1 (%), GLP-1R (human GLP-1R; [2]) [%] | Relative % to native ligand, GLP-1R (human GLP-1R) [%] | Ratio vs. GLP-1R, GLP-1R (human GLP-1R) | Relative % to non-lipidated peptide, GLP-1R (human GLP-1R) [%] | Activity relative to STD peptide (%), GCGR (human GCGR) [%] | Activity relative to GLP-1 (%), GCGR (human GCGR; [2]) [%] | Relative % to native ligand, GCGR (human GCGR) [%] | Ratio vs. GLP-1R, GCGR (human GCGR) | Relative % to non-lipidated peptide, GCGR (human GCGR) [%] | Activity relative to STD peptide (%), GIPR (human GIPR) [%] | Activity relative to GLP-1 (%), GIPR (human GIPR; [2]) [%] | Relative % to native ligand, GIPR (human GIPR) [%] | Ratio vs. GLP-1R, GIPR (human GIPR) | Relative % to non-lipidated peptide, GIPR (human GIPR) [%] | Weight loss (%) ([1]; 20 nmol/kg QD) | further results
1 | CC[C@H](C)[C@H](NC(=O)[C@H](CC(C)C)NC(=O)[C@H](Cc1c[nH]c2ccccc12)NC(=O)[C@H](CCC(N)=O)NC(=O)[C@@H](NC(=O)[C@H](Cc1ccccc1)NC(=O)[C@H](CC(=O)O)NC(=O)[C@H](CCCNC(=N)N)NC(=O)[C@H](CCC(N)=O)NC(=O)[C@H](CCSC)NC(=O)[C@H](CCSC)NC(=O)[C@H](Cc1ccc(O)cc1)NC(=O)[C@H](CC(=O)O)NC(=O)[C@H](CC(C)C)NC(=O)[C@H](Cc1ccc(O)cc1)NC(=O)[C@H](CCCCN)NC(=O)[C@H](CO)NC(=O)[C@H](Cc1ccc(O)cc1)NC(=O)[C@H](CC(=O)O)NC(=O)[C@H](CO)NC(=O)[C@@H](NC(=O)[C@H](Cc1ccccc1)NC(=O)[C@@H](NC(=O)CNC(=O)[C@H](CCC(N)=O)NC(=O)C(C)(C)NC(=O)[C@@H](N)Cc1ccc(O)cc1)[C@@H](C)O)[C@@H](C)O)C(C)C)C(=O)N[C@@H](CCC(=O)O)C(=O)NCC(=O)NCC(=O)N1CCC[C@H]1C(=O)N[C@@H](CO)C(=O)N[C@@H](CO)C(=O)NCC(=O)N[C@@H](C)C(=O)N1CCC[C@H]1C(=O)N1CCC[C@H]1C(=O)N1CCC[C@H]1C(=O)N[C@@H](CO)C(=O)N[C@@H](CSC1CC(=O)N(CCNC(=O)COCCOCCNC(=O)COCCOCCNC(=O)CC[C@H](NC(=O)CCCCCCCCCCCCCCCCC(=O)O)C(=O)O)C1=O)C(N)=O (stereo partly shown) [5-2A] (H-Y[Aib]QGTFTSDYSKYLDYMMQRDFVQWLIEGGPSSGAPPPSC(X1)-NH2; N-terminus assumed) | 145 | 100 | 145 | 100 | 29 | 1 | 0 | 1 | 0 | 1 | 3 | 2 | 3 | 2 | 0.4 | 10.4 ± 1.2 | 
2 | CC[C@H](C)[C@H](NC(=O)[C@H](CC(C)C)NC(=O)[C@H](Cc1c[nH]c2ccccc12)NC(=O)[C@H](CCC(N)=O)NC(=O)[C@@H](NC(=O)[C@H](Cc1ccccc1)NC(=O)[C@H](CC(=O)O)NC(=O)[C@H](CCCNC(=N)N)NC(=O)[C@H](C)NC(=O)[C@H](CCSC)NC(=O)[C@H](CCSC)NC(=O)[C@H](Cc1ccc(O)cc1)NC(=O)[C@H](CC(=O)O)NC(=O)[C@H](CC(C)C)NC(=O)[C@H](Cc1ccc(O)cc1)NC(=O)[C@H](CCCCNC(=O)COCCOCCNC(=O)COCCOCCNC(=O)CC[C@H](NC(=O)CCCCCCCCCCCCCCCCC(=O)O)C(=O)O)NC(=O)[C@H](CO)NC(=O)[C@H](Cc1ccc(O)cc1)NC(=O)[C@H](CC(=O)O)NC(=O)[C@H](CO)NC(=O)[C@@H](NC(=O)[C@H](Cc1ccccc1)NC(=O)[C@@H](NC(=O)CNC(=O)[C@H](CCC(N)=O)NC(=O)C(C)(C)NC(=O)[C@@H](N)Cc1c[nH]cn1)[C@@H](C)O)[C@@H](C)O)C(C)C)C(=O)N[C@@H](CCC(=O)O)C(=O)NCC(=O)NCC(=O)N1CCC[C@H]1C(=O)N[C@@H](CO)C(=O)N[C@@H](CO)C(=O)NCC(=O)N[C@@H](C)C(=O)N1CCC[C@H]1C(=O)N1CCC[C@H]1C(=O)N1CCC[C@H]1C(=O)N[C@@H](CO)C(=O)N[C@@H](CSC1CC(=O)N(CCCCCC(=O)NNC(=O)CCCC[C@@H]2SC[C@@H]3NC(=O)N[C@@H]32)C1=O)C(N)=O (stereo partly shown) [5C, HAibQGT FTSDY SK*YLD YMMAR DFVQW LIEGG PSSGA PPPSB#] |  |  |  |  |  |  |  |  |  |  |  |  |  |  |  | 14.1 ± 1.9 | Activity relative to STD peptide (%), GLP-1 (human GLP-1R; [3]): 202%; Activity relative to GLP-1 (%), GLP-1 (human GLP-1R; [4]): 100%; Activity relative to STD peptide (%), Glucagon (human GCGR; [3]): 23%; Activity relative to GLP-1 (%), Glucagon (human GCGR; [4]): 12%; Activity relative to STD peptide (%), GIP (human GIPR; [3]): 8%; Activity relative to GLP-1 (%), GIP (human GIPR; [4]): 4%; Weight loss (%) ([1]; 10 nmol/kg QD): 9.6 ± 1.0%
3 | CSCC[C@H](NC(=O)[C@H](Cc1ccc(O)cc1)NC(=O)[C@H](CC(=O)O)NC(=O)[C@H](CC(C)C)NC(=O)[C@H](CC(C)C)NC(=O)[C@H](CCCCN)NC(=O)[C@H](CO)NC(=O)[C@H](Cc1ccc(O)cc1)NC(=O)[C@H](CC(=O)O)NC(=O)[C@H](CO)NC(=O)[C@@H](NC(=O)[C@H](Cc1ccccc1)NC(=O)[C@@H](NC(=O)CNC(=O)[C@H](CCC(N)=O)NC(=O)C(C)(C)NC(=O)[C@@H](N)Cc1c[nH]cn1)[C@@H](C)O)[C@@H](C)O)C(=O)N[C@@H](CCSC)C(=O)N[C@@H](CCC(N)=O)C(=O)N[C@@H](CCCNC(=N)N)C(=O)N[C@@H](CC(=O)O)C(=O)N[C@@H](Cc1ccccc1)C(=O)N[C@H](C(=O)N[C@@H](CCC(N)=O)C(=O)N[C@@H](Cc1c[nH]c2ccccc12)C(=O)N[C@@H](CC(C)C)C(=O)N[C@@H](CC(C)C)C(=O)N[C@@H](CCC(=O)O)C(=O)NCC(=O)NCC(=O)N1CCC[C@H]1C(=O)N[C@@H](CO)C(=O)N[C@@H](CO)C(=O)NCC(=O)N[C@@H](C)C(=O)N1CCC[C@H]1C(=O)N1CCC[C@H]1C(=O)N1CCC[C@H]1C(=O)N[C@@H](CO)C(=O)N[C@@H](CSC1CC(=O)N(CCNC(=O)COCCOCCNC(=O)COCCOCCNC(=O)CC[C@H](NC(=O)CCCCCCCCCCCCCCCCC(=O)O)C(=O)O)C1=O)C(N)=O)C(C)C (stereo partly shown) [5-5A] (H-H[Aib]QGTFTSDYSKLLDYMMQRDFVQWLLEGGPSSGAPPPSC(X1)-NH2; N-terminus assumed) | 673 | 100 | 673 | 100 | 40 | 1 | 0 | 1 | 0 | 1 | 14 | 2 | 14 | 2 | 3 | 10.6 ± 1.0 | 
